Source: US9856228B2, “Peptidyl nitril compounds as dipeptidyl peptidase I inhibitors” (Prozymex A/S, priority 2013, dated 2018)
Values joined by “and” are separate entries in the source; they are usually repeats but may differ in a detail not shown here. Equal values may be shown once.

Columns and labels:
CYP2C9 = molecular target: T1, CYP2C9 (Homo sapiens, UniProt P11712); assay: Test for inhibition of CYP2C9 in Human Liver Microsomes; assay type: in vitro ADME; conditions: pooled Human Liver Microsomes, 6 μM diclofenac; read-out: CYP inhibition IC50 CYP2C9
T1 construct: incubated with pooled Human Liver Microsomes (0.25 mg protein/mL); from tissue; host or cells: pooled human liver microsomes
Procedure: (§1) The test for inhibition of CYP2C9, CYP2D6 and CYP3A4 enzymes was performed by Absorption System, Exton, Pa. 19341, USA according to the procedure described below.
(§2) The IC50 values of Example 1 of WO2012119941 (PZ1024) and the compound of the present invention (PZ1025) for CYP enzymes (CYP2C9, CYP2D6, and CYP3A4) in Human Liver Microsomes were measured. […] After a period of incubation, the samples were treated by the addition of protein precipitation solvent and centrifuged. CYP enzyme activities were measured by determining the formation of the CYP probe metabolites by LC-MS/MS, and the IC50 (the concentration of an inhibitor causing 50% inhibition) was estimated using GraphPad Prism® software by fitting the experimental data (percent of control activity remaining at each concentration of test compound) to a sigmoidal model and non-linear regression analysis.
(§3) The CYP enzyme activities in the Human Liver Microsomes were verified in parallel by determining the inhibition of positive inhibitors on the CYP enzyme activities (sulfaphenazole, quinidine and ketoconazole for CYP2C9, CYP2D6, and CYP3A4, respectively).

CYP3A4 = molecular target: T2, CYP3A4 (Homo sapiens, UniProt P08684); assay: Test for inhibition of CYP3A4 in Human Liver Microsomes; assay type: in vitro ADME; conditions: pooled Human Liver Microsomes, 75 μM testosterone; read-out: CYP inhibition IC50 CYP3A4
T2 construct: incubated with pooled Human Liver Microsomes (0.25 mg protein/mL); from tissue; host or cells: pooled human liver microsomes
Procedure: as §1, §2, §3

CYP2D6 = molecular target: T3, CYP2D6 (Homo sapiens, UniProt P10635); assay: Test for inhibition of CYP2D6 in Human Liver Microsomes; assay type: in vitro ADME; conditions: pooled Human Liver Microsomes, 7 μM bufuralol; read-out: CYP inhibition IC50 CYP2D6
T3 construct: incubated with pooled Human Liver Microsomes (0.25 mg protein/mL); from tissue; host or cells: pooled human liver microsomes
Procedure: as §1, §2, §3

[1] = Test for metabolic stability, Human Liver Microsomes; assay type: in vitro ADME; conditions: for Metabolic stability human microsomes t½: human liver microsomes 1.0 mg/mL; for Metabolic stability human microsomes t½ / half-life at 5 μM: 5 μM test compound, NADPH; for half-life at 5 μM: human, liver microsomes, pH 7.4, human liver microsomes 1.0 mg/mL, read-out: Metabolic stability human microsomes t½
Procedure: (§4) The test for metabolic stability was performed by Absorption System, Exton, Pa. 19341, USA.
(§5) The test compound (DPPI inhibitor) was dissolved in 100% DMSO at a concentration of 10 mM. The reaction mixture, consisted of Mouse or Human Liver Microsomes (1.0 mg/mL), 1 mM NADPH, 100 nnM Potassium Phosphate, pH 7.4, 10 mM Magnesium Chloride and test compound at a concentration of 5 μM.
(§6) An aliquot of the reaction mixture (without cofactors) was incubated in a shaking water bath at 37° C. for 3 minutes. Another aliquot of the reaction mixture was prepared as the negative control. The test compound was added into both the reaction mixture and the negative control at a final concentration of 5 μM.
(§7) The reaction was initiated by the addition of NADPH to 1 mM (not into the negative controls) and then incubated in a shaking water bath at 37° C. Aliquots (100 μL) were withdrawn at 0, 10, 20, 30, and 60 minutes or at 0, 15, 30 and 60 minutes and combined with 900 μL of ice-cold 50/50 acetonitrile/dH2O to terminate the reaction. A control (testosterone) was run simultaneously with the test compound in a separate reaction. LC/MS/MS is used to determine the peak area response ratio (peak area corresponding to test compound or control divided by that of an analytical internal standard). The natural log of the percent remaining was plotted versus time. A linear fit was used to determine the rate constant. The fit was truncated if the percent remaining of test compound was less than 10%. The elimination half-lives associated with the disappearance of the test and control compounds were determined to compare their relative metabolic stability.

[2] = tested on: human lymphoblastoid TK6 cells; assay: Test for cytotoxicity (relative cell proliferation, optical absorbance); assay type: cell-based; conditions: for highest concentration that does not cross the significance threshold: TK6 strains GenM-T01 and GenM-C01, 24 hour and 48 hour time points, threshold 80% relative cell density
Procedure: The test for cytotoxicity was performed by Cyprotex Discovery Ltd. 15 Beech lane, Macclesfield, Cheshire, SK10 2DR, UK.
Two strains of cultured human lymphoblastoid TK6 cells was used, GenM-T01 and GenM-C01. A dilution series of each test compound was generated in a 96-well, black microplate with an optically clear base. The plates was analysed at 24 hour and 48 hour time points using a microplate reader, that provides measurements of light absorbance for cells and solutions in the microplates wells.
Cytotoxicity was assessed using relative cell proliferation, quantified using optical absorbance. Cytotoxic compounds are those which reduce relative cell density below a significance threshold set at 80% compared to the vehicle-treated control, at one or more test concentrations.

[3] = Test for metabolic stability, Mouse Liver Microsomes; assay type: in vitro ADME; conditions: for Metabolic stability mouse microsomes t½: mouse liver microsomes 1.0 mg/mL; for Metabolic stability mouse microsomes t½ / half-life at 5 μM: 5 μM test compound, NADPH; for half-life at 5 μM: mouse, liver microsomes, pH 7.4, mouse liver microsomes 1.0 mg/mL, read-out: Metabolic stability mouse microsomes t½
Procedure: as §4, §5, §6, §7

DPPI [4] = molecular target: T4, DPPI (Homo sapiens, UniProt P53634); assay: Human DPPI inhibition assay (Gly-Phe-paranitroanilide substrate); assay type: biochemical; set-up: purchased UNIZYME Laboratories A/S; conditions: Table 1 potency; assay not given
Procedure: Using this assay, the IC50 value of the compound of the invention may be determined using Gly-Phe-paranitroanilide as a DPPI specific substrate.
Assay buffer: 20 mM citric acid (2.1 g citric acid), 150 mM NaCl (4.4 g NaCl) and 2 mM EDTA (370 mg EDTA) was dissolved in 500 mL H2O, and pH was adjusted to 4.5 with HCl.
Substrate: Gly-Phe-paranitroanilide (Sigma Aldrich; Cat. No G0142) was used as the substrate for determination of IC50 values. Km was 2.2 mM. The substrate was solubilized in dinnethylformamid to give a 0.2-0.5 M stock solution, which was then further diluted with stirring in assay buffer to a final concentration of 1 mM.
DPPI: Human DPPI (obtained from UNIZYME Laboratories A/S, DK-2970 Høsholm, Denmark) was stored at −20° C. in a buffer containing 2.5 mM Na-phosphate, 150 mM NaCl, 2 mM cysteamine, 50% glycerol, pH 7.0 at a concentration of 1-2 mg/mL (5-10 μM). This stock solution was diluted 500-1000 times in assay buffer to a concentration of 10-20 nM.
Assay conditions: The assay was performed in 96-well plates. Diluted enzyme (25 μL) was added to the well, followed by 25 μL of test substance in varying concentrations, and the solution was mixed. […] The absorption was measured at 405 nm at 37° C. for every 90 seconds for 12 minutes or every 20 seconds for 4 minutes. […] IC50 was determined using a 4-parameter logistic equation in a non-linear curve fitting routine.

DPPI [5] = molecular target: T4, DPPI; assay: Cell based DPPI inhibition assay (neutrophil elastase activity in U937 cells); set-up: endogenous in cells; host or cells: U937 cells; conditions: 24 hours, elastase activity readout
Procedure: Using the cell based assay described below, the biological activity of the compounds of the invention or other DPPI inhibitors may be determined.
Neutrophil elastase enzymatic activities in U937 cells grown in the presence of DPPI inhibitors were measured by methods modified from Méthot N; Rubin J; Guay D; Beaulieu C; Ethier D; Reddy T J; Riendeau D and Percival M D (2007) 3 Biol Chem, 282, 20836-20846. U937 cells were propagated in culture media (RPMI 1640, supplemented with 10% FBS, 10 mM Hepes, 1 mM sodium pyrovate, 100 units/ml of each of penicillin and streptomycin). Cells were seeded in 12-well plates at 0.4×10^6 cells/ml in volumes of 1.5 ml per well in the presence of no or increasing concentrations of DPPI inhibitor. 12 points in duplicate in the range of 0.1 nM to 50 μM inhibitor were tested. After 24 hours cells were harvested, washed with PBS and lysed in 20 mM Tris-HCl, pH 7.5, 100 mM NaCl, 0.2% Triton X-100. […]
The activity of neutrophil elastase was determined by measuring the enzymatic release of chromogenic p-nitroaniline from the substrate MetOSuc-Ala-Ala-Pro-Val-pNA, which leads to an increase in absorbance at 405 nm. Assays were carried out in 96-well plates in a final volume of 200 μL at 37° C., and absorbance was measured 8 times during 21-35 minutes using a plate reader. IC50 was determined using a 4-parameter logistic equation in a non-linear curve fitting routine.

T4 sequence (P53634 231-394 limits assumed): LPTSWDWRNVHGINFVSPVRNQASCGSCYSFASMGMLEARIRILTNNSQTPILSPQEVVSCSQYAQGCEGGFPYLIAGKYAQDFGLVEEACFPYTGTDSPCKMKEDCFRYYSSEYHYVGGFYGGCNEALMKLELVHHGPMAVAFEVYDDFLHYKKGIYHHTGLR
T4 sequence (P53634 25-134 limits assumed): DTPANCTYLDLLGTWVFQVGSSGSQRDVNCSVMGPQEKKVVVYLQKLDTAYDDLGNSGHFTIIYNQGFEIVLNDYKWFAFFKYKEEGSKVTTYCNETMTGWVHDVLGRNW
T4 sequence (P53634 395-463 limits assumed): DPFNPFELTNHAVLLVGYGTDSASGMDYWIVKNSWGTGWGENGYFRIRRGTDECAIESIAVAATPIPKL
T3 sequence (P10635 whole entry): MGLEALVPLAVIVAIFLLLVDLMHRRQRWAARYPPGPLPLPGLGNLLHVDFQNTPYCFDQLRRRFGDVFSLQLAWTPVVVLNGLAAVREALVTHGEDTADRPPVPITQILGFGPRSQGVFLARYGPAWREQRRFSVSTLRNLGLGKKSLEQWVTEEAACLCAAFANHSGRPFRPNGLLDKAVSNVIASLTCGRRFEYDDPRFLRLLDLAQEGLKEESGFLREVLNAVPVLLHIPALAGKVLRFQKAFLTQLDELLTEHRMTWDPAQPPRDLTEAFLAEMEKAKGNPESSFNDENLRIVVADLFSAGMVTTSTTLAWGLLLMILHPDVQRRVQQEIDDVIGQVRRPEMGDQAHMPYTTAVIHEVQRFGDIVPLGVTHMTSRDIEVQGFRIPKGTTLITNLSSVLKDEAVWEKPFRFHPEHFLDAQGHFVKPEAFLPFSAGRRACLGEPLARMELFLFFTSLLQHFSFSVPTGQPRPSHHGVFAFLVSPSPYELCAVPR
T2 sequence (P08684 whole entry): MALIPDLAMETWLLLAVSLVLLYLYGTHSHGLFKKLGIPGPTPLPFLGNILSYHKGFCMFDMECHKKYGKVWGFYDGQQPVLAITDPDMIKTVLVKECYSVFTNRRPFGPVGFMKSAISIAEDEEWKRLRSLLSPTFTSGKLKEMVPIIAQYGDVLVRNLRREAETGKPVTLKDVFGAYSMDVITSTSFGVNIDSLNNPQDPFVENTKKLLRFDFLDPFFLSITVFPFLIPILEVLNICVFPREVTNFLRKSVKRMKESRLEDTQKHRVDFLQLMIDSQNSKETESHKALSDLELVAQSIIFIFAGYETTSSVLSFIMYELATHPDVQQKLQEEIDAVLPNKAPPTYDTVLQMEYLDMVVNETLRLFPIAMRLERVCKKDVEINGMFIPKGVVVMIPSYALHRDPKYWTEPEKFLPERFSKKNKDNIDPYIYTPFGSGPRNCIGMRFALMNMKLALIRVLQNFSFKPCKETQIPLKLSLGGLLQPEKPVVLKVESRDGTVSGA
T1 sequence (P11712 whole entry): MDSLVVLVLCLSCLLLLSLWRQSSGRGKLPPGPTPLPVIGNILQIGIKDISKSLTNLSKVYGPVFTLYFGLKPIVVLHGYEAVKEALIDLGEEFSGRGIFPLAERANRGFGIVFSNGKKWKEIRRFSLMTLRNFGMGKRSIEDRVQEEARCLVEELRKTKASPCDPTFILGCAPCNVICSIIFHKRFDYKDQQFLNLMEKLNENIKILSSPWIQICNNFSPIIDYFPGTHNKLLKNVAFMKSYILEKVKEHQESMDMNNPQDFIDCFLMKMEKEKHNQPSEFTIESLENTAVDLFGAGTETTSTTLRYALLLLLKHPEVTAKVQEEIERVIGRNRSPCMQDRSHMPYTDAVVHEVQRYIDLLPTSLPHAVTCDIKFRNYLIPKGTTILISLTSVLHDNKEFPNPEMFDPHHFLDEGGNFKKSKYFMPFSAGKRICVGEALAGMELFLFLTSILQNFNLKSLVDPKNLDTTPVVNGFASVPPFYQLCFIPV

SMILES | IC50 (CYP2C9) [µM] | IC50 (CYP3A4) [µM] | IC50 (CYP2D6) [µM] | Metabolic stability human microsomes t½ [1] | half-life at 5 μM [1] [min] | highest concentration that does not cross the significance threshold [2] [µM] | Metabolic stability mouse microsomes t½ [3] | half-life at 5 μM [3] [min] | IC50 (DPPI [4]) [nM] | half-life in human liver microsomes, times higher than PZ1024 ([1]; PZ1025 versus PZ1024) | half-life in human liver microsomes, times higher than PZ1032 ([1]; PZ1025 versus PZ1032) | times less toxic than PZ1024 ([2]; PZ1025 versus PZ1024, TK6 cytotoxicity) | half-life in mouse liver microsomes, times higher than PZ1024 ([3]; PZ1025 versus PZ1024) | half-life in mouse liver microsomes, times higher than PZ1032 ([3]; PZ1025 versus PZ1032) | IC50 (DPPI [5])
CN1CCN(Cc2ccc(-c3ccc(C[C@@H](C#N)NC(=O)C4(N)CCCCC4)cc3)cc2)CC1 [PZ1024, reference compound] | > 100 | > 100 | 18 | t½ ≈ 55 min | ~55 | 15 | t½ ≈ 10 min | ~10 | 37 |  |  |  |  |  | 
CN1CCN(Cc2ccc(-c3ccc(C[C@@H](C#N)NC(=O)C4(N)CCOCC4)cc3)cc2)CC1 [PZ1025, (S)-4-amino-N-(1-cyano-2-(4′-((4-methylpiperazin-1-yl)methyl)biphenyl-4-yl)ethyl)tetrahydro-2H-pyran-4-carboxamide] | > 100 | > 100 | > 100 | t½ > 300 min | > 300 | 150 | t½ ≈ 65 min | ~65 | 34 | more than 5 times | more than 5 times | at least 5 times | more than 6 times | about 2 times | 11 nM and ~11 nM
CN1CCN(S(=O)(=O)c2ccc(-c3ccc(C[C@@H](C#N)NC(=O)C4(N)CCOCC4)cc3)cc2)CC1 [PZ1032, reference compound] |  |  |  | t½ ≈ 50 min | 50 |  | t½ ≈ 35 min | 35 |  |  |  |  |  |  | ~11 nM
